Data as given in PMC6259308, “Preparation and Properties of New Co-Crystals of Ibandronate with Gluco- or Galactopyranoside Derivatives” (Molecules, 2010).

Key:
[1] = In vitro screening of absorption (PAMPA experiments); format: in vitro ADME
Protocol: The permeability of ibandronate (as a control sample) and samples 1-3, 6 and 7 was tested. To retain interactions of both components in the solution it is recommended to increase the concentration of the counterion in the applied mixture. Therefore samples 1-3, 6 and 7 with the addition of sixfold quantity of phenyl-β-D-galactopyranoside to the co-crystal solution were also evaluated.
The permeability of generated co-crystals was evaluated in vitro, using a vertical PAMPA (Parallel Artificial Membrane Permeability Assay) system (BD GentestTMPre-Coated PAMPA Plate System, 96 wells, http://www.bdbeurope.com). The donor samples were prepared by dissolving the tested potential co-crystals in 0.01 M HCl, and than pH was adjusted by bicarbonate buffer to pH 7.4. The control sample was prepared in the same manner from ibandronate standards. A carbonate buffer saline (physiological solution) with pH 7.4 was used as a receptor phase. About 0.5 h before the experiment the PAMPA system was taken out from the freezer and warmed up to the ambient temperature. The receptor phase (200 μL/well) was pipetted into the upper wells. The donor phase was pipetted into the lower ones (300 μL/well). After the incubation time (5 h) 10 μL of the acceptor phase was taken from each well and mixed with physiological solution (990 μL). At least five determinations were performed. […]

[2] = cited from earlier work

For `CCCCCN(C)CCC(O)(P(=O)([O-])O)P(=O)(O)O.[Na+]` [IBN monosodium salt, sodium hydrogen {1-hydroxy-3-[methyl(pentyl)amino]-1-phosphonopropyl}phosphonate], the “Absorption in PAMPA (in words, relative to ibandronate control)” value ([1]; PAMPA, pH 7.4, 5 h) is listed as “highest absorption”, the “Concentration in acceptor solutions of PAMPA plates, Conc.” value ([1]; donor and receptor phase pH 7.4, incubation 5 h, calculated from 5 experiments, samples 1a-7a with sixfold quantity of phenyl-β-D-galactopyranoside added to the co-crystal solution) is listed as 2400 ng/mL and the “Solubility in organic solvents” value ([2]; organic solvents) is listed as “practically insoluble”. For the same compound, the Solubility in water ([2]; water) was “freely soluble”.
